The nature of data set [1]: Pharmacokinetics and brain entry of RAP-103 in rats (oral gavage and IV). In kind it is in vivo.
Data set [2] is described as follows: Pharmacokinetics and brain entry of RAP-103 in guinea pigs (oral gavage and IV). In kind it is in vivo.
Data set [3] is described as follows: Pharmacokinetics of RAP-103 in non-human primates (plasma levels, bioavailability). The data set is classed as in vivo, Rhesus macaques; Macaca mulatta. Conditions: for bioavailability: rhesus monkey, in vivo. On the procedure: In non-human primates (rhesus monkeys) RAP-103 was dosed once on Day 1 by intravenous bolus injection at 1 mg/kg and plasma levels determined. […] Drug in plasma after a single IV dose (1 mg/Kg) was still measurable at anticipated therapeutic levels 96 hrs. post-dose in non-human primates as shown in FIG. 2B.

The nature of data set [4]: Clinical observations and body weights over seven days after RAP-103 dosing (acute toxicity). The data set is classed as in vivo, Rhesus macaques; Macaca mulatta.
For data set [5], the system named is chemotherapy induced peripheral neuropathy (CIPN) caused by paclitaxel. On the procedure:
Morphine was used as a positive control for pain response.
The ability of RAP-103 was tested to treat chemotherapy induced peripheral neuropathy (CIPN) caused by paclitaxel in rodents. This assay uses the chemotherapeutic agent paclitaxel to elicit a chronic pain state. Once established, pain in these animals can persist for weeks.
Rats were given i.p. injections of paclitaxel (2 mg/kg) on days 0, 2, 4, and 6 to induce a chronic pain state. […] On day 21 morphine (2 mg/Kg) was also administered to animals as a positive control. Pain was assessed 60 minutes after morphine or RAP-103 administration on the left rear paw on day 21 with a series of von Frey filaments with logarithmically incrementing stiffness applied perpendicular to the midplantar region of the hind paw. The paw withdrawal force (grams, g) threshold was determined.

[6] abbreviates: IV or oral gavage dosing, FIG. 2A.

As a reminder, the bioavailability is the share of a dose that reaches the circulation, judged against a reference dose that is usually intravenous.

Like-named read-outs stand apart in the source and are kept apart here.

In the case of `C[C@H](O)[C@@H](N)C(=O)N[C@@H](C(=O)N[C@H](CC(N)=O)C(=O)N[C@H](Cc1ccc(O)cc1)C(=O)N[C@@H](C(=O)O)[C@H](C)O)[C@H](C)O` [RAP-103, All D-peptide-Thr-Thr-Asn-Tyr-Thr], the “Brain level compared to plasma levels” value in data set [1] and in data set [2] was “preferentially enters the brain” throughout. For the same molecule, the “Brain entry by oral compared to IV dosing” value in data set [1] (FIG. 2A) and in data set [2] (FIG. 2A) was “preferentially entered the brain by oral” in each case. Also, the Brain entry entry in data set [1] (setting [6]) is given as “quickly entered the brain”; in data set [2] (setting [6]) it was “quickly entered the brain”; in data set [3] (non-human primates (Rhesus macaque), oral and IV dosing) it was “quickly entered the brain”. Also, the “Persistence at therapeutic levels in brain” value in data set [1] (setting [6]) and in data set [2] (setting [6]) was “at least 24 hrs” throughout. The “Time post-dose at which drug in plasma was still measurable at anticipated therapeutic levels” value in data set [3] (non-human primates, single IV dose 1 mg/Kg, FIG. 2B) is at least 96 h. Besides, the bioavailability in data set [3] (1 mg/kg, female rhesus monkeys, 1 mg/kg dose level, read-out: Absolute bioavailability) amounted to 88%; in data set [3] (po, 1 mg/kg, male rhesus monkeys, 1 mg/kg dose level, read-out: Absolute bioavailability), 89%; in data set [3] (po, 1 mg/kg, non-human primates, read-out: Oral bioavailability), 88%. The “AUC 0-T, male versus female monkeys” value in data set [3] (rhesus monkeys, 1 mg/kg) was “comparable”. For the same molecule, the “Cmax, male versus female monkeys” value in data set [3] (rhesus monkeys, 1 mg/kg) is listed as “comparable”. The Acute toxicity entry in data set [4] is listed as “no acute toxicity”. Moreover, the “RAP-103-related changes in body weights” value in data set [4] was “no RAP-103-related changes”. The “RAP-103-related changes in clinical observations” value in data set [4] is “no RAP-103-related changes”. In addition, in data set [5] (animal model of CIPN, RAP-103 0.05 mg/kg vs morphine 2 mg/Kg), the “Treatment of paclitaxel induced CIPN compared with standard of care (morphine)” value is recorded as “at least equivalent”. For the same molecule, in data set [5] (animal model of paclitaxel induced CIPN), the “Dose lower on a weight basis than morphine at at least equivalent effect” value is recorded as “about 40 fold”. The “Paw withdraw threshold compared to vehicle” value in data set [5] (rats treated with paclitaxel, FIG. 4) is “increased paw withdraw threshold”. Moreover, in data set [5] (rats, 0.05 mg/kg daily i.p. days 17-21 post paclitaxel, assessed 60 minutes after dosing on day 21, FIG. 4), the “Effect on chronic pain caused by repeated administration of paclitaxel” value is recorded as “reduced chronic pain”.
